Test results from PMC12040169 (PLOS Biology, 2025).

Assay: in vitro
Details: human, hela cells, % viability

| SMILES | viability at 28.5 h, 10 µM [%] | viability at 28.5 h, 10 µM (bulk resorufin, single well) [%] |
| --- | --- | --- |
| CS(=O)(=O)N(CC(=O)Nc1ccccc1C(=O)N1CCOCC1)c1ccc(F)c(Cl)c1 [CBK267931] | 98.1 |  |
| COCC(=O)N1CCN(C(=O)c2cccs2)[C@@H](C(=O)OC)C1 [CBK289614] | 111 |  |
| CCN1C(=O)N(CC)C2C1NC(=O)N2CCCC(=O)O (stereo not drawn) [CBK287131] | 89.3 |  |
| C=CCC1(CC=C)CCN1C(=O)c1cc(-c2ccccn2)n[nH]1 [CBK282448] | 106 |  |
| CCc1nc2cc(NC(=O)c3cc(C4CC4)nn3C)ccc2n1C [CBK283275] | 85.8 |  |
| CN(C)CCP(=O)(c1ccccc1)c1ccccc1 [CBK026596] | 109 |  |
| C=C(C)Cn1c(Cc2c[nH]c3ccccc23)nnc1SCC(C)C [CBK200087T] | 98.6 |  |
| COC(=O)c1ccc2c(=O)n(CCc3ccc(S(N)(=O)=O)cc3)c(=S)[nH]c2c1 [CBK268238] | 91.2 |  |
| COc1ccc(CCNCc2cccc(Cl)c2)cc1 [CBK058787] |  | 90 |
| CCOC(=O)Cn1c(CCC(=O)O)ccc1-c1ccc(F)cc1 [CBK265916] | 97.8 |  |
| O=C(O)C1CC=CCC1C(=O)NCc1ccncc1 (stereo not drawn) [CBK265481] | 89.2 |  |
| CCOC(=O)Cn1c(CN2CCCCC2C)nc2c1c(=O)n(C)c(=O)n2C (stereo not drawn) [CBK269382] | 95.1 |  |
| O=C(O)c1cccc(NS(=O)(=O)c2ccccc2)c1 [CBK155710] | 79.7 |  |
| CC(=O)N/C(=C/c1ccccc1)C(=O)NCCC(=O)O [CBK264046] | 87.2 |  |
| COc1ccc(-c2cnc(NCC3CC3)c(C(=O)N(C)CCN(C)C)c2)cc1 [CBK076338] | 90.5 |  |
| CC1CCN(CC[C@H]2CCCN2S(=O)(=O)c2cccc(O)c2)CC1 [CBK074118C] | 112 |  |
| COc1ccc(C2OCCN2C(C)=O)cc1 (stereo not drawn) [CBK004536] | 80.8 |  |
| O=C(c1cncnc1)N1CCC2(CCN(C(=O)c3cc(F)c(F)cc3F)C2)C1 (stereo not drawn) [CBK131405] | 94.8 |  |

| SMILES | viability at 28.5 h, 10 µM [%] | viability at 28.5 h, 10 µM (bulk resorufin, single well) [%] |
| --- | --- | --- |
| Cc1ccc(CC(=O)N2CCCCC2c2ncc(-c3cccc(F)c3)[nH]2)cn1 (stereo not drawn) [CBK291152] | 98 |  |
| c1cnc(N2CCN(Cc3ccc4c(c3)OCO4)CC2)c(OCCN2CCOCC2)n1 [CBK082894T] | 87.8 |  |
| O=C(O)CC1SC(=O)N(c2ccccc2)C1=O (stereo not drawn) [CBK287085] | 78.8 |  |
| COc1cccc(OCC(=O)Nc2ccccc2C(=O)O)c1 [CBK286819] | 85.9 |  |
| CCn1cc(S(=O)(=O)Nc2cccc(CCCC(=O)O)c2)cn1 [CBK304717] | 102 |  |
| Cc1ccc(O)c(NC(=S)NC(=O)COc2ccccc2)c1 [CBK264373] | 106 |  |
| NS(=O)(=O)c1ccc(NC(=O)/C=C/c2cccc([N+](=O)[O-])c2)cc1 [CBK261616] | 99.5 |  |
| COCCn1nc(C(=O)N(C)Cc2nc3ccccc3s2)ccc1=O [CBK305338] | 91.8 |  |
| O=C(Nc1cccc(N2CCNCC2)c1)c1cnc2ccccc2c1 [CBK029415T] | 83.2 |  |
| Cc1nn(-c2ccccc2)c2nc(O)c(CNC(c3ccccc3)c3ccco3)cc12 (stereo not drawn) [CBK286449] | 83.8 |  |
| CC(C)NC(=O)Cn1nnc(-c2cccc(C(F)(F)F)c2)n1 [CBK304275] | 95.2 |  |
| Cc1cc(C)n(-c2nc3cc(Cl)ccc3nc2NCc2ccc3c(c2)OCO3)n1 [CBK268482] | 106 |  |
| Cc1ccccc1CSCC(=O)NCCN1CCOCC1 [CBK269207] | 103 |  |
| CCN1CCCC1CNc1c(Cl)c(Cl)nc2c1c(=O)n(C)c(=O)n2C (stereo not drawn) [CBK007287] | 97.2 |  |
| O=C(Cc1ccc(F)cc1)Nc1nc(-c2cccs2)cs1 [CBK287736] | 82.3 |  |
| COc1ccc(-c2cn[nH]c2-c2ccc(OCCN3CCOCC3)cc2O)cc1 [CBK288112] | 97 |  |
| Cc1ccc(/C=C/C(=O)O)cc1S(=O)(=O)NCC1CCCO1 (stereo not drawn) [CBK287267] | 82.5 |  |
| Cc1cc2c(cc1C)C(=O)CC1(CCN(C(=O)c3ccco3)CC1)O2 [CBK282819] | 96 |  |
